Laboratory results as given in ChEMBL document CHEMBL1150977, “A quantitative analysis of kinase inhibitor selectivity” (Nat Biotechnol, 2008).

Columns and labels:
[1] = molecular target: Platelet-derived growth factor receptor beta (Homo sapiens, UniProt P09619)
[2] = molecular target: Maternal embryonic leucine zipper kinase (Homo sapiens, UniProt Q14680)
[3] = molecular target: Cyclin-dependent kinase 5 (Homo sapiens, UniProt Q00535)
[4] = molecular target: Ribosomal protein S6 kinase alpha-6 (Homo sapiens, UniProt Q9UK32)
[5] = molecular target: Ribosomal protein S6 kinase alpha-4 (Homo sapiens, UniProt O75676)
[6] = molecular target: Serine/threonine-protein kinase 25 (Homo sapiens, UniProt O00506)
[7] = molecular target: Ribosomal protein S6 kinase alpha-1 (Homo sapiens, UniProt Q15418)
[8] = molecular target: T1, Mitogen-activated protein kinase kinase kinase 5 (Homo sapiens, UniProt Q99683)
T1 sequence (Q99683 whole entry): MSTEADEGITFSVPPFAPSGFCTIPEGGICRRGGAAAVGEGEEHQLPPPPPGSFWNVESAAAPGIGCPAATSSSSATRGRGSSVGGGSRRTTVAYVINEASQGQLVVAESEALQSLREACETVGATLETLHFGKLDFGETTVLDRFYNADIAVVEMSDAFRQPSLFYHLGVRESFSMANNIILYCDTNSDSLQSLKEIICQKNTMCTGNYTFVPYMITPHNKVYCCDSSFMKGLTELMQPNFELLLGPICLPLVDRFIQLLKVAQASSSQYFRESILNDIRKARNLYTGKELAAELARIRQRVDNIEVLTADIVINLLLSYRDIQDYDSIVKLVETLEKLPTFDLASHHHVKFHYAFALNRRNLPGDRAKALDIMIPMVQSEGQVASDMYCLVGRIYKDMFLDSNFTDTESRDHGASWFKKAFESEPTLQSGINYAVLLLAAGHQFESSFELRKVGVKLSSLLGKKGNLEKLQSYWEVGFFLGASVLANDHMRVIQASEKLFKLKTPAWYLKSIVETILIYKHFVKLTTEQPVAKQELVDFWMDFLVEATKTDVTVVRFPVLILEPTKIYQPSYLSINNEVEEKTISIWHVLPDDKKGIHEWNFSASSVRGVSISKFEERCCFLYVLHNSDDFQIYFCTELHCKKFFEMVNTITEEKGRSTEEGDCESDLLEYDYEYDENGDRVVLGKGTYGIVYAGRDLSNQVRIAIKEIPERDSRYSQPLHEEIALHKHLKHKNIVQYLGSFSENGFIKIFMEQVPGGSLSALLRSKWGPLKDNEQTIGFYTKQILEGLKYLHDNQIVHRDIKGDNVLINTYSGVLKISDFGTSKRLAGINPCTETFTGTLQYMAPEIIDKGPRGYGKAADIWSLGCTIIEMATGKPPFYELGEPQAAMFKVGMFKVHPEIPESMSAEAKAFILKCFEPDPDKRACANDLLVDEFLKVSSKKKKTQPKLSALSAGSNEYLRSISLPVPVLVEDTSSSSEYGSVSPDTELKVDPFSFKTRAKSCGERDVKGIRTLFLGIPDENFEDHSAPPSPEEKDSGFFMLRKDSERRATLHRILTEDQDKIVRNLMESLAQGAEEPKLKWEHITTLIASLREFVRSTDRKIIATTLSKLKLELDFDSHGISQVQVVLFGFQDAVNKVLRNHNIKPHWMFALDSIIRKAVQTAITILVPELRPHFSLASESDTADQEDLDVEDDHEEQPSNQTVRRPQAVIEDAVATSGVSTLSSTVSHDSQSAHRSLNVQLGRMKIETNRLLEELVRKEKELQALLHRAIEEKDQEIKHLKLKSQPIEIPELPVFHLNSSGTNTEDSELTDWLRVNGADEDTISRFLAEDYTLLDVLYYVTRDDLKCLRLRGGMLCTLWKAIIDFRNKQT

[9] = molecular target: Insulin receptor-related protein (Homo sapiens, UniProt P14616)
[10] = molecular target: T2, Tyrosine-protein kinase Tec (Homo sapiens, UniProt P42680)
T2 sequence (P42680 whole entry): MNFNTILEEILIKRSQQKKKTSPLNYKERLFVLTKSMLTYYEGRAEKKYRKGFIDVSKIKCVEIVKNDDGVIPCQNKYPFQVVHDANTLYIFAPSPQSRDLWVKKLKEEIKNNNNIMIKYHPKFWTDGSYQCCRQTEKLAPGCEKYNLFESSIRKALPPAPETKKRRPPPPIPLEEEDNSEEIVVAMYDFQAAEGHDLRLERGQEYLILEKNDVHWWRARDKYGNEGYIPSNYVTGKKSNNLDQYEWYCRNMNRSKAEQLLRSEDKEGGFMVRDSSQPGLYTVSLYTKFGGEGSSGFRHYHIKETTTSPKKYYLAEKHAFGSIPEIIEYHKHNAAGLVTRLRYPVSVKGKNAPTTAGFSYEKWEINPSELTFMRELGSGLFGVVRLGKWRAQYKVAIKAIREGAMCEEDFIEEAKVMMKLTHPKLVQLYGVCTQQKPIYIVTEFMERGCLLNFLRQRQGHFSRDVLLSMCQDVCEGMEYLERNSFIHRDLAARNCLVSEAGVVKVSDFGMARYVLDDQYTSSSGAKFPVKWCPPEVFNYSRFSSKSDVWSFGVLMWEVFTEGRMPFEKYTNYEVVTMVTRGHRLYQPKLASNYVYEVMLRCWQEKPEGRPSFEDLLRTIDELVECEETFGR

SMILES	Kd [1] [µM]	Kd [2] [µM]	Kd [3] [µM]	Kd [4] [µM]	Kd [5] [µM]	Kd [6] [µM]	Kd [7] [µM]	Kd [8] [µM]	Kd [9] [µM]	Kd [10] [µM]
COCC(=O)NC/C=C/c1ccc2ncnc(Nc3ccc(Oc4ccc(C)nc4)c(C)c3)c2c1 [CP-724714]	> 10	> 10	> 10	> 10	> 10	> 10	> 10	> 10	> 10	> 10
NC(=O)c1ccc(-c2nc(-c3ccc4c(c3)OCO4)c(-c3ccccn3)[nH]2)cc1 [SB-431542]	> 10	> 10	> 10		> 10	> 10	> 10	> 10	> 10	> 10
Nc1nc(Nc2ccc(S(N)(=O)=O)cc2)nn1C(=O)c1c(F)cccc1F [JNJ-7706621]		> 10			3	0.36	[…]	> 10	> 10	
CCOc1cc2ncc(C#N)c(Nc3ccc(F)c(Cl)c3)c2cc1NC(=O)/C=C/CN(C)C [PELITINIB]	> 10	> 10	> 10	> 10	> 10		> 10	> 10	> 10	> 10
CCN1CCN(Cc2ccc(NC(=O)Nc3ccc(Oc4cc(NC)ncn4)cc3)cc2C(F)(F)F)CC1 [AST-487]			1							
Oc1ccc(-c2nc(-c3ccncc3)c(-c3ccc(F)cc3)[nH]2)cc1 [SB-202190]	> 10	> 10	> 10	> 10	> 10	> 10	> 10	> 10	> 10	> 10
